From patent US6335031B1, “TTS containing an antioxidant” (priority 1998, dated 2002)

How the values were obtained:
[1] = degradation testing of Compound A and of the prior-art transdermal composition; type: physicochemical; conditions: particularly in the presence of oxygen; prior-art composition in occlusive polymer matrix and air-tight packaging
[2] = tolerability and absorption of Compound A from transdermal patches; type: in vivo
Procedure: The transdermal devices of the invention in general have, for example an effective contact area of pharmaceutical composition on the skin of from about 1 to about 80 square centimeters, preferably about 10 square centimeters, and are intended to be applied at intervals of about once every 1 to 7 days, preferably 1-3 days. […] Compound A may, for example be administered at a dose of 8 mg in a patch of ca. 10 cm^2, once every day. The patch may be applied, for example on the abdomen, thigh, behind an ear, or on a shoulder or upper arm.
(§1) Higher dosages are possible, for example 4.5 mg twice daily and even 6 mg twice daily. Tolerability is seen to be even better for the transdermal device, wherein 24 mg were absorbed in 24 hours.

[3] = tolerability of Compound A given orally; type: in vivo; conditions: oral, initial dose 1.5 mg twice a day, stepped up to 3 mg twice daily in week 2
Procedure: as §1

With CCN(C)C(=O)Oc1cccc([C@H](C)N(C)C)c1 [Compound A] the susceptibility to degradation [1] was “susceptible to degradation”, the “tolerability of transdermal device compared with oral” value ([2]; transdermal device, 24 mg absorbed in 24 hours) was “even better” and the amount absorbed ([2]; transdermal device, in 24 hours) was 24 mg. For the same compound, the tolerability ([2]; transdermal, 36 mg free base in up to 80 cm^2 of patches) was “well tolerated”, the amount absorbed ([2]; transdermal, patches up to 80 cm^2 containing 36 mg compound A) was 12 mg and the tolerability [3] was “well tolerated”.
